From ChEMBL document CHEMBL1201862, “PubChem BioAssay data set” (2004)
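Cultured in 96-well plates, cells were exposed to test compound for 48 hours across five concentrations. GI50 marks 50% less growth.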 The source made the active and inactive calls. Rule as the data show it: active = GI50 up to about 1.1 µM and inactive = higher.

Tests used:
Test in all cases: growth of human tumour cells (NCI), 48 h
[1] = test system: DMS-114
[2] = test system: SNB-78
[3] = test system: K562
[4] = test system: HCT-116
[5] = test system: SK-MEL-2
[6] = test system: OVCAR-8
[7] = test system: LOX IMVI
[8] = test system: NCI-H460
[9] = test system: HOP-18
[10] = test system: MOLT-4
[11] = test system: KM-20L2
[12] = test system: RPMI-8226
[13] = test system: MCF7
[14] = test system: IGROV-1

Measured: GI50

O=C(NN1C(=O)CSC1c1ccc(C(F)(F)F)cc1)c1ccncc1 (configuration not stated)
inactive: [1] > 100 µM | [2] > 31.6 µM | [3] > 100 µM | [4] > 100 µM | [5] > 100 µM | [6] > 100 µM | [7] > 100 µM | [8] > 100 µM | [9] > 100 µM | [10] > 100 µM | [11] > 100 µM | [12] > 65.6 µM | [13] > 100 µM | [14] > 100 µM

N/C(=N\O)N/N=C/c1ncccc1O
inactive: [1] 8.05 µM | [2] > 88.5 µM | [3] 4.82 µM | [4] 11.8 µM | [5] 31.3 µM | [6] 5.04 µM | [7] 11.2 µM | [8] 5.96 µM | [9] 22.8 µM | [10] 11.2 µM | [11] 10.4 µM | [12] 1.83 µM | [13] 2.07 µM | [14] 16.2 µM

Nc1c(S(=O)(=O)O)cc(S(=O)(=O)O)c2ccc(/N=N/c3ccc(/C=C/c4ccc(/N=N/c5ccc6c(S(=O)(=O)O)cc(S(=O)(=O)O)c(N)c6c5O)cc4S(=O)(=O)O)c(S(=O)(=O)O)c3)c(O)c12
inactive: [1] > 100 µM | [2] > 83.4 µM | [3] > 100 µM | [4] > 100 µM | [5] > 100 µM | [6] > 100 µM | [7] > 100 µM | [8] > 92.7 µM | [9] > 100 µM | [10] > 100 µM | [11] 79.4 µM | [12] > 100 µM | [13] > 100 µM | [14] 90.2 µM
